Key:
[1] = tested on: T-wave increase in the ECG induced by lypressin; test: Influence on the T-wave increase in the ECG of the anesthetized rat induced by intravenous bolus injection of lypressin; format: in vivo; conditions: p.o.
Protocol: Influence of various compounds on the T-wave
increase in the ECG of the anesthetized rat induced by
intravenous bolus injection of lypressin was determined
following the method of M. Leitold et al., Drug Res.,
36, 1454 (1986). The substances were administered
perorally 30 minutes or at various times before the […]

[2] = Survival rate of rats after an acute coronary ligature; format: in vivo, rat
Protocol: Influence of various substances on the survival
rate of rats 60 minutes, 24 hours and 7 days after an
acute coronary ligature was determined following the
method of I. Lepran, et al., L. Szekeres, Acta
Physiologica Sci. Hungaricae 53, 190 (1979). The
substances were administered orally 5 minutes before
the acute coronary ligature.

[3] = tested on: cardiovascular parameters (MAP, HR, LVSP, LVEDP, dp/dtmax, TPR, PAP, SV, CO); test: Cardiovascular actions following intravenous administration to anesthetized dogs (pentobarbital) with opened thorax and artificial respiration; format: in vivo, dog; conditions: for CO (cardiac output), change / PAP (blood pressure in the A. pulmonalis), change / SV (stroke volume), change: vs pre-value, unsigned
Description: (§1) venous administration to anesthetized dogs (pentobarbital)
(§2) with an opened thorax and artificial respiration.
as §1, §2

[4] = tested on: systolic blood pressure (SBP) and heart rate (HR); test: Systolic blood pressure and heart rate following peroral administration to conscious beagle dogs; format: in vivo, beagle dog; conditions: mean ± SEM
Description: Duration of the action of various substances on the systolic blood
heart rate (HR) following peroral administration to conscious beagle

[5] = Tolerance of peroral dose in mice; conditions: mouse, in vivo, po
Description: Set forth below is data obtained on the compounds of Examples 17, 19 and 20 that illustrates the pharmacological action of the compounds of the present invention.

[6] = 60 minutes, 100.0 mg/kg orally 5 min before ligature
[7] = 24 hours, 100.0 mg/kg orally 5 min before ligature
[8] = 7 days, 100.0 mg/kg orally 5 min before ligature

Structure (SMILES) | Duration of action at the ED50 dose [1] [h] | Number of rats surviving after an acute coronary ligature [2, 6] | Number of rats surviving after an acute coronary ligature [2, 7] | Number of rats surviving after an acute coronary ligature [2, 8] | CO (cardiac output), action of substance ([3]; 30 μg/kg i.v.) [l/M] | CO (cardiac output), duration of action ([3]; 30 μg/kg i.v.) [min] | PAP (blood pressure in the A. pulmonalis), action of substance ([3]; 30 μg/kg i.v.) [mmHg] | PAP (blood pressure in the A. pulmonalis), duration of action ([3]; 30 μg/kg i.v.) [min] | SV (stroke volume), duration of action ([3]; 30 μg/kg i.v.) [min] | CO (cardiac output), change ([3]; 30 μg/kg i.v.) [l/M] | PAP (blood pressure in the A. pulmonalis), change ([3]; 30 μg/kg i.v.) [mmHg] | SV (stroke volume), change ([3]; 30 μg/kg i.v.) [mL/s] | CO (cardiac output), duration of action ([3]; 300 μg/kg i.v.) [min] | PAP (blood pressure in the A. pulmonalis), duration of action ([3]; 300 μg/kg i.v.) [min] | SV (stroke volume), action of substance ([3]; 300 μg/kg i.v.) [mL/s] | SV (stroke volume), duration of action ([3]; 300 μg/kg i.v.) [min] | PAP (blood pressure in the A. pulmonalis), change ([3]; 300 μg/kg i.v.) [mmHg] | SV (stroke volume), change ([3]; 300 μg/kg i.v.) [mL/s] | CO (cardiac output), duration of action ([3]; 3000 μg/kg i.v.) [min] | Tolerated peroral dose [5] [mg/kg] | further results
COc1ccccc1N1CCN(CC(O)CO[C@H]2CO[C@H]3[C@@H]2OC[C@@H]3O[N+](=O)[O-])CC1 (stereo partly drawn) [Example 20, 5-O-<3-[4-(2-Methoxyphenyl)-piperazinyl]-2-hydroxypropyl>-isoidide-2-nitrat] | 4 | 14/20 | 14/20 | 14/20 | 0.81 ± 0.3 | 12 ± 6 | 16.0 ± 1 | 11 ± 6 | 12 ± 6 | 0.38 ± 0.1 | 0.4 ± 0.2 | 2.3 ± 1 | 35 ± 23 | 14 ± 13 | 7.2 ± 2.5 | 33 ± 23 | 0.7 ± 0.3 | 0.5 ± 2.9 | 3 ± 0.4 | 500 | SV (stroke volume), action of substance ([3]; 30 μg/kg i.v.): 7.5 ± 2 mL/s; CO (cardiac output), change ([3]; 300 μg/kg i.v.): 0.21 ± 0.6 l/M; PAP (blood pressure in the A. pulmonalis), duration of action ([3]; 3000 μg/kg i.v.): > 177 min; SV (stroke volume), duration of action ([3]; 3000 μg/kg i.v.): 4 ± 0.0 min; CO (cardiac output), change ([3]; 3000 μg/kg i.v.): 0.87 ± 0.7 l/m; PAP (blood pressure in the A. pulmonalis), change ([3]; 3000 μg/kg i.v.): 1.1 ± 0.3 mmHg; HR (heart rate), action of substance ([4]; 5.0 mg/kg p.o., after 1 hour): 98 ± 7 Bts/M; SBP (systolic blood pressure), action of substance ([4]; 5.0 mg/kg p.o., after 1 hour): 97 ± 8 mmHg; SBP (systolic blood pressure), action of substance ([4]; 5.0 mg/kg p.o., after 2 hours): 95 ± 6 mmHg; HR (heart rate), action of substance ([4]; 5.0 mg/kg p.o., after 3 hours): 82 ± 7 Bts/M; SBP (systolic blood pressure), action of substance ([4]; 5.0 mg/kg p.o., after 3 hours): 106 ± 4 mmHg; HR (heart rate), action of substance ([4]; 5.0 mg/kg p.o., after 6 hours): 78 ± 6 Bts/M; HR (heart rate), action of substance ([4]; 5.0 mg/kg p.o., after 8 hours): 77 ± 6 Bts/M
COc1ccccc1N1CCN(CC(O)CO[C@@H]2CO[C@H]3[C@@H]2OC[C@H]3O[N+](=O)[O-])CC1 (stereo partly drawn) [Example 19, 5-O-<3-[4-(2-Methoxyphenyl)-piperazinyl]-2-hydroxypropyl>-isomannide-2-nitrate] | 4 | 15/20 | 15/20 | 15/20 |  |  |  |  |  |  |  |  |  |  |  |  |  |  |  | 500 | HR (heart rate), action of substance ([4]; 5.0 mg/kg p.o., after 2 hours): 90 ± 5 Bts/M; HR (heart rate), action of substance ([4]; 5.0 mg/kg p.o., after 3 hours): 85 ± 5 Bts/M; SBP (systolic blood pressure), action of substance ([4]; 5.0 mg/kg p.o., after 3 hours): 118 ± 6 mmHg; HR (heart rate), action of substance ([4]; 5.0 mg/kg p.o., after 6 hours): 86 ± 5 Bts/M
COc1ccccc1N1CCN(CC(O)CO[C@H]2CO[C@H]3[C@@H]2OC[C@H]3O[N+](=O)[O-])CC1 (stereo partly drawn) [Example 17, 2-O-<3-[4-(2-Methoxyphenyl)-piperazinyl]-2-hydroxypropyl>-isosorbide-5-nitrate] | 2 |  |  |  | 0.93 ± 0.07 | 6 ± 3 | 17.0 ± 4 | 2 ± 0.3 | 2 ± 0.2 | 0.07 ± 0.04 | 1.3 ± 0.5 | 0.4 ± 0.2 | 73 ± 40 | 1.4 ± 0.1 | 3.7 ± 0.4 | 74 ± 43 | 1.5 ± 0.5 | 0.7 ± 0.3 | > 75 | 500 | Number of rats surviving after an acute coronary ligature ([2]; 60 minutes, 30.0 mg/kg orally 5 min before ligature): 17/20; Number of rats surviving after an acute coronary ligature ([2]; 24 hours, 30.0 mg/kg orally 5 min before ligature): 17/20; Number of rats surviving after an acute coronary ligature ([2]; 7 days, 30.0 mg/kg orally 5 min before ligature): 17/20; PAP (blood pressure in the A. pulmonalis), duration of action ([3]; 3000 μg/kg i.v.): 2 ± 0.6 min; SV (stroke volume), action of substance ([3]; 3000 μg/kg i.v.): 3.0 ± 0.6 mL/s; SV (stroke volume), duration of action ([3]; 3000 μg/kg i.v.): > 75 min; CO (cardiac output), change ([3]; 3000 μg/kg i.v.): 0.450 ± 0.025 l/m; PAP (blood pressure in the A. pulmonalis), change ([3]; 3000 μg/kg i.v.): 2.3 ± 0.8 mmHg; SV (stroke volume), change ([3]; 3000 μg/kg i.v.): 2.6 ± 0.4 mL/s; SBP (systolic blood pressure), action of substance ([4]; 6.0 mg/kg p.o., after 1 hour): 91 ± 6 mmHg; HR (heart rate), action of substance ([4]; 6.0 mg/kg p.o., after 2 hours): 110 ± 16 Bts/M; SBP (systolic blood pressure), action of substance ([4]; 6.0 mg/kg p.o., after 2 hours): 89 ± 4 mmHg; HR (heart rate), action of substance ([4]; 6.0 mg/kg p.o., after 3 hours): 89 ± 8 Bts/M; SBP (systolic blood pressure), action of substance ([4]; 6.0 mg/kg p.o., after 3 hours): 97 ± 5 mmHg; HR (heart rate), action of substance ([4]; 6.0 mg/kg p.o., after 6 hours): 89 ± 5 Bts/M; HR (heart rate), action of substance ([4]; 6.0 mg/kg p.o., after 8 hours): 85 ± 7 Bts/M

— patent publication US4891373A, “Aminopropanol derivatives of 1,4:3,6-dianhydrohexitol nitrates, processes for their preparation and their use as medicaments” (Pfizer Inc., priority 1988, dated 1990)
